How the values were obtained:
Format in all cases: in vivo
[1] = tested on: crabgrass; test: Test Example 14: herbicidal effect test by foliage treatment in upland field; conditions: 7 days after sowing, 120 g/10a, 14 days after treatment
How it was run: (§1)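 Dry-weight read-out: suppression (%) = (1 − mean treated dry weight/mean untreated dry weight)×100, at 14 days post-spray, two replicate plots per concentration. Spray applied 7 days after sowing, 120 g a.i. per 10 are.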

[2] = tested on: Chenopodium album; test: as above; conditions: 7 days after sowing, 120 g/10a, 14 days after treatment
How it was run: as §1

[3] = tested on: Lindernia pyxidaria; test: Test Example 11: herbicidal effect test by soil treatment in paddy field; conditions: 120 g/10a active ingredient, 14 days after treatment
How it was run: (§2)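 Puddled paddy soil with N:P:K 17:17:17 fertilizer in Wagner pots; 30 seeds per species sown at 0–1 cm, flooded to about 3 cm, kept in a glass greenhouse. Water-diluted emulsifiable concentrate dripped in immediately after sowing at 120 g a.i. per 10 are. Suppression from dry weight versus untreated at 14 days.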

[4] = tested on: Scirpus juncoides; test: as above; conditions: 120 g/10a active ingredient, 14 days after treatment
How it was run: as §2

[5] = tested on: Monochoria vaginalis; test: as above; conditions: 120 g/10a active ingredient, 14 days after treatment
How it was run: as §2

[6] = tested on: Echinochloa crus-galli; test: as above; conditions: 120 g/10a active ingredient, 14 days after treatment
How it was run: as §2

[7] = tested on: Amaranthus viridis; test: Test Example 14: herbicidal effect test by foliage treatment in upland field; conditions: 7 days after sowing, 120 g/10a, 14 days after treatment
How it was run: as §1

[8] = tested on: Echinochloa crus-galli; test: as above; conditions: 7 days after sowing, 120 g/10a, 14 days after treatment
How it was run: as §1

[9] = tested on: Amaranthus viridis; test: Test Example 13: herbicidal effect test by soil treatment in upland field; conditions: 120 g/10a, 14 days after treatment
How it was run: (§3)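 Field alluvial soil in 36 cm^2 pots had 20 seeds of each weed mixed into its top 1 cm. One day after sowing, a water-diluted emulsifiable concentrate was sprayed onto the soil at 100 liter per 10 are (120 g active ingredient per 10 are), with two replicates. Weed suppression (%) was assessed after 14 days.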

[10] = tested on: Echinochloa crus-galli; test: as above; conditions: 120 g/10a, 14 days after treatment
How it was run: as §3

[11] = tested on: crabgrass; test: as above; conditions: 120 g/10a, 14 days after treatment
How it was run: as §3

[12] = tested on: Chenopodium album; test: as above; conditions: 120 g/10a, 14 days after treatment
How it was run: as §3

[13] = tested on: Lindernia pyxidaria; test: Test Example 12: herbicidal effect test by treatment during growing period in paddy field; conditions: 120 g/10a; treatment seven days after sowing in flooded paddy pot; assessed 14 days after treatment
How it was run: (§4)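 Puddled, fertilized paddy soil in Wagner pots, sown with 30 seeds per species at 0–1 cm and flooded to ~3 cm in a glass greenhouse. Emulsifiable concentrate dripped into water 7 days after sowing at 120 g a.i. per 10 are. Suppression % from dry weight vs untreated, 14 days post-treatment, two replicates.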

[14] = tested on: Scirpus juncoides; test: as above; conditions: 120 g/10a; treatment seven days after sowing in flooded paddy pot; assessed 14 days after treatment
How it was run: as §4

[15] = tested on: Monochoria vaginalis; test: as above; conditions: 120 g/10a; treatment seven days after sowing in flooded paddy pot; assessed 14 days after treatment
How it was run: as §4

[16] = tested on: Echinochloa crus-galli; test: as above; conditions: 120 g/10a; treatment seven days after sowing in flooded paddy pot; assessed 14 days after treatment
How it was run: as §4

Row | SMILES | herbicidal effect, Crabgrass [1] | herbicidal effect, Chenopodium album [2] | Weed suppression rate (%) Lindemia pyxidaria [3] | Weed suppression rate (%) Scirpus juncoides [4] | Weed suppression rate (%) Monochoria vaginalis [5] | Weed suppression rate (%) Echinochloa crus-galli [6] | herbicidal effect, Amaranthus viridis [7] | herbicidal effect, Echinochloa crus-galli [8] | herbicidal effect, Amaranthus viridis [9] | herbicidal effect, Echinochloa crus-galli [10] | herbicidal effect, Crabgrass [11] | herbicidal effect, Chenopodium album [12] | Weed suppression rate (%) Lindemia pyxidaria [13] | Weed suppression rate (%) Scirpus juncoides [14] | Weed suppression rate (%) Monochoria vaginalis [15] | Weed suppression rate (%) Echinochloa crus-galli [16]
1 | CC(C)N(C(=O)n1cnn(S(=O)(=O)C(C)C)c1=O)c1ccc(Cl)cn1 [Compound 11-85] | 90% | 80% | 80% | 90% | 80% | 90% | 90% | 80% | 90% | 100% | 100% | 60% | 90% | 70% | 90% | 90%
2 | CC(C)N(C(=O)n1cnn(S(=O)(=O)C(C)C)c1=O)c1ncc(Cl)cc1Cl [Compound 11-86] | 90% | 80% | 80% | 90% | 80% | 90% | 90% | 80% | 90% | 80% | 90% | 80% | 90% | 90% | 90% | 90%
3 | CCC(C)S(=O)(=O)n1ncn(C(=O)N(c2ccc(F)cc2F)C(C)C)c1=O (centres unmarked) [Compound 11-93] | 90% | 80% | 90% | 90% | 90% | 90% | 90% | 80% | 90% | 80% | 90% | 80% | 80% | 90% | 90% | 90%
4 | CC(C)CS(=O)(=O)n1ncn(C(=O)N(c2ccc(F)cc2F)C(C)C)c1=O [Compound 11-94] | 90% | 90% | 100% | 90% | 100% | 100% | 50% | 90% | 80% | 100% | 100% | 90% | 100% | 90% | 90% | 100%
5 | CC(C)N(C(=O)n1cnn(S(=O)(=O)CCl)c1=O)c1ccc(F)cc1F [Compound 11-109] | 90% | 40% | 100% | 90% | 90% | 100% | 40% | 90% | 90% | 100% | 100% | 100% | 100% | 90% | 90% | 100%
6 | Cc1ccc(N(C(=O)n2cnn(S(=O)(=O)CCl)c2=O)C(C)C)c(F)c1 [Compound 11-123] | 90% | 80% | 80% | 90% | 80% | 90% | 90% | 80% | 90% | 80% | 90% | 80% | 80% | 90% | 80% | 90%
7 | CC(C)N(C(=O)n1cnn(S(=O)(=O)C2CC2)c1=O)c1ccc(F)cc1F [Compound 11-142, 1-cyclopropylsulfonyl-N-(2,4-difluorophenyl)-N-isopropyl-5-oxo-1,2,4-triazole-4-carboxamide] | 90% | 80% | 100% | 100% | 90% | 100% | 90% | 80% | 90% | 80% | 90% | 80% | 80% | 80% | 90% | 100%
8 | CC(C)N(C(=O)n1cnn(S(=O)(=O)C2CC2)c1=O)c1ccccc1 [Compound 11-159] | 90% | 80% | 80% | 90% | 80% | 90% | 90% | 80% | 90% | 80% | 90% | 80% | 70% | 80% | 90% | 90%

From US11076595B2, “1-(n,n-disubstituted carbamoyl) 4-(substituted sulfonyl)triazolin-5-one derivative, 4-(n,n-disubstituted carbamoyl) 1-(substituted sulfonyl)triazolin-5-one derivative, and herbicide containing said derivative as active ingredient” (HOKKO CHEMICAL INDUSTRY CO., LTD., priority 2017, dated 2021)
